Measurements taken from patent publication US6660846B1, “Vesicular amino acid transporter composition and method” (The Regents of the University of CA, priority 1997, dated 2003).
Like-named read-outs stand apart in the source and are kept apart here.

Experiments:
[1] = biological target: T1, rVGAT (RUNC-47, rat unc-47 homologue) (Rattus norvegicus, UniProt O35458); assay: 3H-GABA transport assay in vesicles from PC12 cells stably expressing rVGAT (RUNC-47); format: biochemical
T1 construct: expressed in transfected cells
T1 sequence (O35458 1-525): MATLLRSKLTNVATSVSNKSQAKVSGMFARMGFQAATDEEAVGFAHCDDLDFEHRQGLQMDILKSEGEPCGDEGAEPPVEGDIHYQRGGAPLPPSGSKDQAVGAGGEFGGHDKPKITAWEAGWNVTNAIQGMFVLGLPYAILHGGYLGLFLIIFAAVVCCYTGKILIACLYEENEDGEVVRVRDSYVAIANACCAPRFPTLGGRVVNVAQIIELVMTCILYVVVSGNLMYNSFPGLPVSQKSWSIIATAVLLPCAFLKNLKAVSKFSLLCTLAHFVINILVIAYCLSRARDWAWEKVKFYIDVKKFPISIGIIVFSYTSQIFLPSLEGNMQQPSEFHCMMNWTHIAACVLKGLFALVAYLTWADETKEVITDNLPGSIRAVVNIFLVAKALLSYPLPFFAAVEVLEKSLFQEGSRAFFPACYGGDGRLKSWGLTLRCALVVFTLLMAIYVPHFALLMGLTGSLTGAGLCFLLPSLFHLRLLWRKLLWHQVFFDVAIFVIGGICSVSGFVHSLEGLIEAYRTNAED
Procedure: Stable PC12 transformants expressing high levels of the putative transport protein were isolated by screening cell clones with fluorescent-tagged antibodies generated against the rat unc-47 homologue RUNC-47. […] A population of light vesicles was then isolated from two stable transformants and purified by differential centrifugation (Example 7).
Hereafter, the terms RUNC-47 and rVGAT are used interchangeably.
These studies were carried out in the transport assay detailed in Example 8, using synaptic vesicles prepared from transfected PC-12 cells, as described above and detailed in Example 7.
Briefly, vesicles were prepared from PC12 cell clone B1 stably expressing rVGAT and from un-transfected cells.
The rat unc-47 homologue cDNA subcloned into the plasmid expression vector pcDNA3-Amp (InVitrogen; Carlsbad, Calif.) was introduced into PC12 cells by electroporation (Grote, et al., Cell 81, 581-589, 1995). […] The nuclear debris was sedimented at 100 g for 5 minutes and heavier membranes were eliminated by centrifugation at 27,000 g for 1 hour The remaining light membrane vesicles were sedimented at 65,000 g for 1 hour and resuspended in SH containing the same protease inhibitors at a final concentration of approximately 10 μg protein/μl.
Incubation was performed at 29° C. for varying intervals and the reaction was terminated by rapid filtration (Supor 200, Gelman; AnnArbor, Mich.), followed by immediate washing with 6 ml cold 0.15 M KCl. Background uptake was determined by incubation at 4° C. for 0 minutes. The bound radioactivity was measured by scintillation counting in 2.5 ml Cytoscint (ICN). […] Nigericin and valinomycin were dissolved in ethanol and added to final concentrations of 5 μM and 20 μM respectively. Transport measurements were performed in duplicate and repeated three or more times using at least two different membrane preparations.

RUNC-47 (rVGAT) = RUNC-47 (rVGAT) (Rattus norvegicus, UniProt O35458)
[2] = biological target: T2, vesicular monoamine transporter 1 (VMAT1) (Rattus norvegicus, UniProt Q01818); assay: Serotonin transport by endogenous VMAT1 in the same PC12 cell membrane preparations; format: biochemical
T2 construct: transport of serotonin by endogenous VMAT1; endogenous in cells; host or cells: PC12 cells (clone B1 stably expressing rVGAT), light membrane vesicles
T2 sequence (Q01818 1-521): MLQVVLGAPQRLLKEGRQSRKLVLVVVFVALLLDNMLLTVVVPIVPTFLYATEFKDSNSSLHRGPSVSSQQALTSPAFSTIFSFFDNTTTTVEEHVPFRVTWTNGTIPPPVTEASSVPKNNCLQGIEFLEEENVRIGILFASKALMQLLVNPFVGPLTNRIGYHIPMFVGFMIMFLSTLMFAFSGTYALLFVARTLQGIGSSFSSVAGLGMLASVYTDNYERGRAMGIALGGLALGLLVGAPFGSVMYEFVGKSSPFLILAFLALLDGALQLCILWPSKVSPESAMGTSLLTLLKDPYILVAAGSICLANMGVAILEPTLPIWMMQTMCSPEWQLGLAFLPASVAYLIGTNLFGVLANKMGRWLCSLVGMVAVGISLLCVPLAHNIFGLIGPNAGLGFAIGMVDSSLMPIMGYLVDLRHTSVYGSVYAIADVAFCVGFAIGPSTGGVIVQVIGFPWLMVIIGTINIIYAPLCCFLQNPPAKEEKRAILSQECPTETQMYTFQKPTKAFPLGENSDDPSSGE
Description: Since nigericin inhibits VMAT1 activity on these vesicles to a greater extent (approximately 65%) than it inhibits rVGAT activity, vesicular transport of serotonin has a greater dependence on ΔpH. […] Thus, rVGAT and VMAT1 depend on both components of the electrochemical gradient but VMAT1 depends to a greater extent on ΔpH, consistent with previous results using mixed populations of synaptic vesicles.

[3] = substrate: NCCCC(=O)O; assay: cells, lysate or membranes named; conditions: other: transfected PC12 cell vesicles; uptake measured at 30 seconds; pH 7.4; 29.0 °C

`NCCCC(=O)O` [GABA, gamma-aminobutyric acid] was tested. Which IC50 [1] did it give?
The IC50 was 4.75 mM.

How did the “Inhibition of rVGAT activity (3H-GABA transport), in words” value (“Inhibition of rVGAT activity” for short) [1] turn out when `N[C@@H](CCC(=O)O)C(=O)O` [glutamate] was run?
The value was “does not inhibit rVGAT activity even at extremely high concentrations”.

And the IC50 ([1]; read-out: Inhibition of GABA Transport by Structurally Related Compounds, IC50, vesicles from rVGAT-transfected PC12 cells, about 40 μM GABA including radiolabeled GABA)?
Its IC50 is greater than 100 mM.

How did the IC50 [1] turn out when `CCCC(=O)O` [n-butyric acid] was run?
The IC50 was 43.5 mM.

And the “Inhibition of rVGAT activity” value ([1]; vesicles from rVGAT-transfected PC12 cells, about 40 μM GABA)?
Its value is “inhibits both rVGAT activity and GABA transport into brain synaptic vesicles”.

How did the IC50 [1] turn out when `NCC(=O)O` [glycine] was run?
Its IC50 is 27.5 mM.

What about the “Inhibition of rVGAT activity” value [1] of the same molecule?
Its value is “relatively low potency”.

What about the “Uptake of 3H-glycine by RUNC-47 PC-12 vesicle preparations” value (RUNC-47 (rVGAT)) of the same molecule?
Its value is “no significant uptake”.

What does the source list for `CO[C@@H]1C[C@@H](C[C@H]2CC[C@H](C)[C@H]([C@@H](C)C(=O)O)O2)O[C@]2(O[C@](C)([C@H]3CC[C@@](C)([C@@H]4O[C@@H]([C@H]5O[C@@](O)(CO)[C@H](C)C[C@@H]5C)C[C@@H]4C)O3)C[C@H]2C)[C@@H]1C` [nigericin]?
Inhibition of GABA transport in rVGAT transfected cells ([1]; nigericin 5 FM, PC12 clone B1 membranes): approximately 40%; Inhibition of serotonin transport by endogenous VMAT1 ([2]; nigericin, membranes from transfected PC12 cells that express VGAT): approximately 65%

With `CC(C)[C@@H]1NC(=O)[C@H](C)OC(=O)[C@@H](C(C)C)NC(=O)[C@@H](C(C)C)OC(=O)[C@H](C(C)C)NC(=O)[C@H](C)OC(=O)[C@@H](C(C)C)NC(=O)[C@@H](C(C)C)OC(=O)[C@H](C(C)C)NC(=O)[C@H](C)OC(=O)[C@@H](C(C)C)NC(=O)[C@@H](C(C)C)OC1=O` [valinomycin] as the molecule, how does the “Effect on rVGAT activity of adding valinomycin to nigericin” value ([1]; valinomycin 20 FM added to nigericin 5 FM, PC12 clone B1 membranes) read?
The value was “eliminates rVGAT activity”.

And the “Effect on residual VMAT1 activity of adding valinomycin to nigericin” value ([2]; valinomycin added to nigericin, same PC12 membranes)?
Its value is “eliminates the residual VMAT1 activity”.

Which IC50 [1] does the source give for `C=CC(N)CCC(=O)O` (stereo not drawn) [gamma-vinyl-GABA] here?
Its IC50 is 7.5 mM.

What about the “Inhibition of rVGAT activity” value [1] of the same molecule?
Its value is “as potently as unlabelled GABA”.

B1: rVGAT (RUNC-47, rat unc-47 homologue) (Rattus norvegicus) (protein)
chain: MATLLRSKLTNVATSVSNKSQAKVSGMFARMGFQAATDEEAVGFAHCDDLDFEHRQGLQMDILKSEGEPCGDEGAEPPVEGDIHYQRGGAPLPPSGSKDQAVGAGGEFGGHDKPKITAWEAGWNVTNAIQGMFVLGLPYAILHGGYLGLFLIIFAAVVCCYTGKILIACLYEENEDGEVVRVRDSYVAIANACCAPRFPTLGGRVVNVAQIIELVMTCILYVVVSGNLMYNSFPGLPVSQKSWSIIATAVLLPCAFLKNLKAVSKFSLLCTLAHFVINILVIAYCLSRARDWAWEKVKFYIDVKKFPISIGIIVFSYTSQIFLPSLEGNMQQPSEFHCMMNWTHIAACVLKGLFALVAYLTWADETKEVITDNLPGSIRAVVNIFLVAKALLSYPLPFFAAVEVLEKSLFQEGSRAFFPACYGGDGRLKSWGLTLRCALVVFTLLMAIYVPHFALLMGLTGSLTGAGLCFLLPSLFHLRLLWRKLLWHQVFFDVAIFVIGGICSVSGFVHSLEGLIEAYRTNAED
For B1, which Km [3] is on record?
The Km was 5 mM.
